# In patent US12227742B2, “Nucleic acid modifiers” (THE BROAD INSTITUTE, INC., priority 2017, dated 2025):
# “Also recorded” adds a separate entry of the source.
# Key:
# Factor VII = conditions: LNP siRNA systems containing these lipids; cited from earlier work
# supercoiled plasmid DNA = assay: Plasmid DNA cleavage by small-molecule strand breakers (gel electrophoresis); assay type: biochemical; conditions: for DNA cleavage activity on supercoiled plasmid: gel electrophoresis, FIG. 19A-19D; for DNA cleavage activity on supercoiled plasmid / Effect of reducing agent on DNA cleavage: supercoiled plasmid; for Effect of reducing agent on DNA cleavage: with reducing agent, FIG. 19A, 19B
# Procedure: Nitracrine (compound 1.15) was synthesized according to the reaction scheme depicted in FIG. 5. Plasmid DNA was incubated with nitracrine alone (10, 12, 14 μM), nitracrine with exposure to UV (365 nm), or nitracrine with exposure to UV and reducing agent TCEP (FIG. 8A). The same experiment was repeated but using 16, 18, or 20 μM nitracrine (FIG. 8B).
# Plasmid DNA was incubated with nitracrine alone (10, 12, 14 μM), nitracrine with exposure to UV (365 nm), or nitracrine with exposure to UV and reducing agent DTT (FIG. 9A). The same experiment was repeated but using 16, 18, or 20 μM nitracrine (FIG. 9B).
# Plasmid DNA was incubated with 16 μM nitracrine and exposed to UV (365 nm) over a range of 30-60 minutes (FIG. 10).
# DNA cleavage activity of synthetic strand breakers. A series of small molecule DNA strand breakers having diverse structures and cleavage mechanisms were tested (FIG. 19A-19D). A supercoiled plasmid was used as a model substrate DNA, as both single and double-strand breaks can easily be detected using gel electrophoresis.
# pcDNA = pcDNA cleavage by compound 1.15, gel electrophoresis; assay type: biochemical
# target DNA = assay: AsCpf1 activity, mutational analysis; assay type: biochemical
compound,measurement,setting,value
"CCCCC/C=C\C/C=C\CCCCCCCC(=O)OCC(CN(C)C)OC(=O)CCCCCCC/C=C\C/C=C\CCCCC (stereo not shown) [DLinDAP, 1,2-dilineoyl-3-dimethylammonium-propane]",gene silencing potency in hepatocytes in vivo (rank order),Factor VII,DLinKC2-DMA>DLinKDMA>DLinDMA>>DLinDAP
"CCCCC/C=C\C/C=C\CCCCCCCCOCC(CN(C)C)OCCCCCCCC/C=C\C/C=C\CCCCC (stereo not shown) [DLinDMA, 1,2-dilinoleyloxy-3-N,N-dimethylaminopropane]",gene silencing potency in hepatocytes in vivo (rank order),Factor VII,DLinKC2-DMA>DLinKDMA>DLinDMA>>DLinDAP
"CCCCC/C=C\C/C=C\CCCCCCCCC1(CCCCCCCC/C=C\C/C=C\CCCCC)OCC(CCN(C)C)O1 (stereo not shown) [DLinKC2-DMA, 1,2-dilinoleyl-4-(2-dimethylaminoethyl)-[1,3]-dioxolane]",gene silencing potency in hepatocytes in vivo (rank order),Factor VII,DLinKC2-DMA>DLinKDMA>DLinDMA>>DLinDAP
"CCCCC/C=C\C/C=C\CCCCCCCCC1(CCCCCCCC/C=C\C/C=C\CCCCC)OCC(CN(C)C)O1 (stereo not shown) [DLinKDMA, 1,2-dilinoleyloxy-keto-N,N-dimethyl-3-aminopropane]",gene silencing potency in hepatocytes in vivo (rank order),Factor VII,DLinKC2-DMA>DLinKDMA>DLinDMA>>DLinDAP
CC(C)C(=O)O[C@H]1c2c(c3c(=O)c4cccc(O)c4c(=O)c=3c2=[N+]=[N-])[C@@H](O)[C@H]2O[C@@]21C [FL-120B],DNA cleavage activity on supercoiled plasmid,supercoiled plasmid DNA,cleave DNA at low micromolar concentrations
same,Effect of reducing agent on DNA cleavage,supercoiled plasmid DNA,accelerated by a reducing agent
CC[C@@]1(O[C@H]2C[C@H](OC)[C@@H](O)[C@H](C)O2)[C@H](O[C@@H]2C[C@H](O)[C@@H](N(C)C)[C@H](C)O2)C2=Cc3c(O)c4c(c(O)c3C2=C(O)[C@@H]1[C@H]1C(=O)c2c(c(=[N+]=[N-])c3c(O)c5c(=O)ccc(=O)c5c(O)c23)[C@@H](O[C@@H]2C[C@H](O)[C@@H](N(C)C)[C@H](C)O2)[C@@]1(CC)O[C@H]1C[C@H](OC)[C@@H](O)[C@H](C)O1)C(=O)C=CC4=O [Lomaiviticin C],DNA cleavage activity on supercoiled plasmid,supercoiled plasmid DNA,cleave DNA at low micromolar concentrations
same,Effect of reducing agent on DNA cleavage,supercoiled plasmid DNA,accelerated by a reducing agent
CN(C)CCCNc1c2ccccc2nc2cccc([N+](=O)[O-])c12 [Nitracrine],DNA cleavage over UV exposure time,"supercoiled plasmid DNA; plasmid DNA, 16 μM nitracrine, UV 365 nm for 30-60 minutes",Cleavage was observed under all conditions
same,DNA cleavage with exposure to UV,"supercoiled plasmid DNA; plasmid DNA, nitracrine 10-20 μM, UV 365 nm",DNA cleavage was observed at all nitracrine concentrations
same,DNA cleavage with exposure to UV and reducing agent DTT,"supercoiled plasmid DNA; plasmid DNA, nitracrine 10-20 μM, UV 365 nm, DTT",including with DTT
same,DNA cleavage activity on supercoiled plasmid,supercoiled plasmid DNA,cleaves DNA when irradiated by light
"CN(C)CCCNc1c2ccccc2nc2cccc([N+](=O)[O-])c12 [compound 1.15, nitracrine]",pcDNA cleavage,"pcDNA; 16 μM, UV (365 nm) from 30 to 60 min",pcDNA cleavage
same,pcDNA cleavage,"pcDNA; 10-20 μM, UV (365 nm), presence and absence of reducing agent DTT",pcDNA cleavage
same,pcDNA cleavage,"pcDNA; 10-20 μM, UV (365 nm), presence and absence of reducing agent TCEP",pcDNA cleavage
"G783P: AsCpf1 mutant, WED",activity,target DNA,reduced activities; also recorded: Reduced activity
"R176A: AsCpf1 mutant, REC1",activity,target DNA,reduced activities; also recorded: Reduced activity
"R192A: AsCpf1 mutant, REC1",activity,target DNA,reduced activities; also recorded: Reduced activity
"R951A: AsCpf1 mutant, bridge helix",activity,target DNA,reduced activities
